PMC11898738 (mBio, 2025)

B1: recombinant BbPMI labeled with RED-NHS dye (BbPMI-NT647) (enzyme)
chain: MNNEDNIFLMKNNIKEYDWGGINFIPNLLGDKIDGKPKAEMWLGAHKTFSSKILYKNEYVLLSDFLEDHKELLGCNDEFPFLLKVLSANKPLSIQIHPSKDIALKGYESENNKGIDINDPKRTYKDKNPKIELIYALSDFYALKGFLPLDEIKKIYEILELNFDFQSHKDFVKTIFDLQMYELEKIIEKILKNLDLIDNFRGYWFNEIYNIYGIDVGLLVFLGMNILKLKPGEVVYTNSQEVHAYLKGDCIELMTNSDNVIRAGLTTKYIDKDEMLRVGQFEEGKLSFLNPDFQDNFSVFRLPNTNLKLIQKKINENICINRNSAMVLLVLNGCVSINKSLNLKKGESIFIGKKAENLFIDGDGEAFIAGFN
modifications: labeled using RED-NHS dye (NT647)

Assays:
[1] = target: T1, BbPMI (Borreliella burgdorferi, UniProt O51368); test: coupled PGI/G6PDH assay, NADPH at […] nm; type: biochemical
T1 construct: gene manA

[2] = target: type IV collagen (UniProt P02462 173-1669; P08572 184-1712); test: MST; BbPMI labeled with RED-NHS dye at constant 5 nM; serial dilutions of collagen IV or controls; PBS + 0.05% Tween-20; 15 minutes at RT; standard capillaries, 10% excitation, 40% MST power; T-Jump analysis; conditions: both partners purified

Molecule	IC50 [1] [nM]	Kd [2] [nM]
O=c1c2ccc(F)cc2sn1-c1ccccc1 [NCGC00871019-01]	~500	–
COc1ccc(-n2sc3ccc(F)cc3c2=O)cc1 [NCGC00871021-01]	~500	–
Cc1ccc(C)c(-n2sc3cc(F)ccc3c2=O)c1 [MLS0315771, 2-(2,5-dimethylphenyl)-6-fluorobenzo[d]isothiazol-3(2H)-one]	600 to 900	–
Cc1ccc(C)c(-n2sc3ccc(F)cc3c2=O)c1 [NCGC00871020-01]	~500	–
B1	–	128 ± 45.1
